Laboratory results taken from the NIST ThermoML archive (doi:10.1021/je034017j).
Numbers after ± are expanded uncertainties.

Assay: xn = mol fraction of the nth substance listed
Conditions: 101 kPa, Liquid

CCCCC(=O)OC [methyl pentanoate] + CCCCCCO
Capillary tube (Ostwald / Ubbelohde) method
Conditions | kinematic viscosity [m2/s]
293.15 K, x1 = 0.085 | 4.728e-06 ± 3.3e-08
293.15 K, x1 = 0.1145 | 4.25e-06 ± 3e-08
293.15 K, x1 = 0.1854 | 3.367e-06 ± 2.4e-08
293.15 K, x1 = 0.2862 | 2.527e-06 ± 1.8e-08
293.15 K, x1 = 0.4123 | 1.87e-06 ± 1.4e-08
293.15 K, x1 = 0.5087 | 1.533e-06 ± 1.2e-08
293.15 K, x1 = 0.6157 | 1.256e-06 ± 1e-08
293.15 K, x1 = 0.6835 | 1.129e-06 ± 9e-09
293.15 K, x1 = 0.7846 | 9.82e-07 ± 8e-09
293.15 K, x1 = 0.9071 | 8.57e-07 ± 7e-09
293.15 K, x1 = 0.9274 | 8.42e-07 ± 7e-09
293.15 K, x1 = 1 | 8e-07 ± 7e-09
303.15 K, x1 = 0.0771 | 3.701e-06 ± 2.6e-08
303.15 K, x1 = 0.1183 | 3.251e-06 ± 2.3e-08
303.15 K, x1 = 0.192 | 2.619e-06 ± 1.9e-08
303.15 K, x1 = 0.2983 | 1.994e-06 ± 1.5e-08
303.15 K, x1 = 0.4502 | 1.436e-06 ± 1.1e-08
303.15 K, x1 = 0.4593 | 1.412e-06 ± 1.1e-08
303.15 K, x1 = 0.5089 | 1.285e-06 ± 1e-08
303.15 K, x1 = 0.613 | 1.085e-06 ± 9e-09
303.15 K, x1 = 0.691 | 9.67e-07 ± 8e-09
303.15 K, x1 = 0.7873 | 8.55e-07 ± 7e-09
303.15 K, x1 = 0.8796 | 7.75e-07 ± 7e-09
303.15 K, x1 = 0.9346 | 7.39e-07 ± 6e-09
303.15 K, x1 = 1 | 7.08e-07 ± 6e-09
313.15 K, x1 = 0.0802 | 2.858e-06 ± 2e-08
313.15 K, x1 = 0.1168 | 2.58e-06 ± 1.8e-08
313.15 K, x1 = 0.1965 | 2.082e-06 ± 1.5e-08
313.15 K, x1 = 0.2939 | 1.644e-06 ± 1.2e-08
313.15 K, x1 = 0.3995 | 1.321e-06 ± 1e-08
313.15 K, x1 = 0.5141 | 1.083e-06 ± 9e-09
313.15 K, x1 = 0.548 | 1.028e-06 ± 8e-09
313.15 K, x1 = 0.5971 | 9.61e-07 ± 8e-09
313.15 K, x1 = 0.6912 | 8.44e-07 ± 7e-09
313.15 K, x1 = 0.7876 | 7.52e-07 ± 6e-09
313.15 K, x1 = 0.9035 | 6.75e-07 ± 6e-09
313.15 K, x1 = 0.9358 | 6.58e-07 ± 6e-09
313.15 K, x1 = 1 | 6.34e-07 ± 6e-09

Conditions | mass density [kg/m3]
293.15 K, x1 = 0.085 | 824.62 ± 0.3
293.15 K, x1 = 0.1145 | 826.65 ± 0.3
293.15 K, x1 = 0.1854 | 831.55 ± 0.31
293.15 K, x1 = 0.2862 | 838.56 ± 0.33
293.15 K, x1 = 0.4123 | 847.4 ± 0.35
293.15 K, x1 = 0.5087 | 854.22 ± 0.37
293.15 K, x1 = 0.6157 | 861.84 ± 0.39
293.15 K, x1 = 0.6835 | 866.67 ± 0.4
293.15 K, x1 = 0.7846 | 873.96 ± 0.43
293.15 K, x1 = 0.9071 | 882.86 ± 0.45
293.15 K, x1 = 0.9274 | 884.35 ± 0.46
293.15 K, x1 = 1 | 889.75 ± 0.47
303.15 K, x1 = 0.0771 | 816.54 ± 0.3
303.15 K, x1 = 0.1183 | 819.23 ± 0.31
303.15 K, x1 = 0.192 | 824.09 ± 0.32
303.15 K, x1 = 0.2983 | 831.16 ± 0.33
303.15 K, x1 = 0.4502 | 841.37 ± 0.36
303.15 K, x1 = 0.4593 | 841.99 ± 0.36
303.15 K, x1 = 0.5089 | 845.34 ± 0.37
303.15 K, x1 = 0.613 | 852.44 ± 0.39
303.15 K, x1 = 0.691 | 857.8 ± 0.4
303.15 K, x1 = 0.7873 | 864.46 ± 0.42
303.15 K, x1 = 0.8796 | 870.9 ± 0.44
303.15 K, x1 = 0.9346 | 874.8 ± 0.46
303.15 K, x1 = 1 | 879.51 ± 0.47
313.15 K, x1 = 0.0802 | 809.21 ± 0.3
313.15 K, x1 = 0.1168 | 811.47 ± 0.31
313.15 K, x1 = 0.1965 | 816.46 ± 0.32
313.15 K, x1 = 0.2939 | 822.62 ± 0.33
313.15 K, x1 = 0.3995 | 829.39 ± 0.35
313.15 K, x1 = 0.5141 | 836.8 ± 0.37
313.15 K, x1 = 0.548 | 838.99 ± 0.38
313.15 K, x1 = 0.5971 | 842.2 ± 0.39
313.15 K, x1 = 0.6912 | 848.37 ± 0.4
313.15 K, x1 = 0.7876 | 854.78 ± 0.42
313.15 K, x1 = 0.9035 | 862.6 ± 0.45
313.15 K, x1 = 0.9358 | 864.8 ± 0.45
313.15 K, x1 = 1 | 869.32 ± 0.47

CCCCCCO [hexan-1-ol] + CCCCCCCC
Conditions | kinematic viscosity [m2/s] | mass density [kg/m3]
293.15 K, x2 = 0 | 6.61e-06 ± 6.9e-08 | 818.84 ± 0.29
293.15 K, x2 = 0.0618 | 5.49e-06 ± 6e-08 | 809.74 ± 0.29
293.15 K, x2 = 0.086 | – | 806.25 ± 0.29
293.15 K, x2 = 0.1114 | 4.74e-06 ± 5.3e-08 | 802.62 ± 0.29
293.15 K, x2 = 0.1597 | – | 795.86 ± 0.29
293.15 K, x2 = 0.1891 | – | 791.83 ± 0.29
293.15 K, x2 = 0.1928 | 3.74e-06 ± 4.2e-08 | 791.32 ± 0.29
293.15 K, x2 = 0.2346 | – | 785.68 ± 0.29
293.15 K, x2 = 0.3022 | 2.75e-06 ± 3.1e-08 | 776.82 ± 0.29
293.15 K, x2 = 0.4039 | 2.08e-06 ± 2.4e-08 | 764.07 ± 0.29
293.15 K, x2 = 0.495 | 1.67e-06 ± 2e-08 | 753.22 ± 0.29
293.15 K, x2 = 0.4994 | – | 752.71 ± 0.29
293.15 K, x2 = 0.6088 | 1.31e-06 ± 1.6e-08 | 740.42 ± 0.29
293.15 K, x2 = 0.715 | 1.08e-06 ± 1.3e-08 | 729.21 ± 0.29
293.15 K, x2 = 0.7991 | – | 720.79 ± 0.3
293.15 K, x2 = 0.8086 | 9.47e-07 ± 1.2e-08 | 719.86 ± 0.3
293.15 K, x2 = 0.8381 | – | 717.02 ± 0.3
293.15 K, x2 = 0.8767 | – | 713.37 ± 0.3
293.15 K, x2 = 0.9078 | 8.43e-07 ± 1.1e-08 | 710.5 ± 0.3
293.15 K, x2 = 0.9272 | – | 708.75 ± 0.3
293.15 K, x2 = 0.9458 | 8.03e-07 ± 1e-08 | 707.09 ± 0.3
303.15 K, x2 = 0 | 4.88e-06 ± 5.4e-08 | 811.56 ± 0.29
303.15 K, x2 = 0.0233 | – | 808.05 ± 0.29
303.15 K, x2 = 0.051 | – | 803.93 ± 0.29
303.15 K, x2 = 0.086 | 3.85e-06 ± 4.3e-08 | 798.81 ± 0.29
303.15 K, x2 = 0.1189 | – | 794.07 ± 0.29
303.15 K, x2 = 0.1308 | 3.41e-06 ± 3.9e-08 | 792.38 ± 0.29
303.15 K, x2 = 0.1581 | – | 788.53 ± 0.29
303.15 K, x2 = 0.188 | 2.94e-06 ± 3.4e-08 | 784.37 ± 0.29
303.15 K, x2 = 0.1922 | – | 783.8 ± 0.29
303.15 K, x2 = 0.2352 | – | 777.94 ± 0.29
303.15 K, x2 = 0.2632 | – | 774.2 ± 0.29
303.15 K, x2 = 0.308 | 2.15e-06 ± 2.5e-08 | 768.33 ± 0.29
303.15 K, x2 = 0.369 | – | 760.56 ± 0.29
303.15 K, x2 = 0.3936 | 1.75e-06 ± 2.1e-08 | 757.47 ± 0.29
303.15 K, x2 = 0.4152 | – | 754.82 ± 0.29
303.15 K, x2 = 0.4508 | – | 750.49 ± 0.29
303.15 K, x2 = 0.4994 | 1.38e-06 ± 1.7e-08 | 744.75 ± 0.29
303.15 K, x2 = 0.5249 | – | 741.79 ± 0.29
303.15 K, x2 = 0.578 | – | 735.78 ± 0.29
303.15 K, x2 = 0.5852 | 1.17e-06 ± 1.4e-08 | 734.98 ± 0.29
303.15 K, x2 = 0.6255 | – | 730.55 ± 0.3
303.15 K, x2 = 0.7026 | 9.66e-07 ± 1.2e-08 | 722.36 ± 0.3
303.15 K, x2 = 0.7143 | – | 721.15 ± 0.3
303.15 K, x2 = 0.774 | – | 715.1 ± 0.3
303.15 K, x2 = 0.7909 | – | 713.42 ± 0.3
303.15 K, x2 = 0.8042 | 8.42e-07 ± 1.1e-08 | 712.11 ± 0.3
303.15 K, x2 = 0.8532 | – | 707.39 ± 0.3
303.15 K, x2 = 0.8767 | 7.73e-07 ± 1e-08 | 705.17 ± 0.3
303.15 K, x2 = 0.9009 | – | 702.91 ± 0.31
303.15 K, x2 = 0.9272 | 7.36e-07 ± 1e-08 | 700.52 ± 0.31
303.15 K, x2 = 0.947 | – | 698.76 ± 0.31
313.15 K, x2 = 0 | 3.69e-06 ± 4.2e-08 | 804.28 ± 0.3
313.15 K, x2 = 0.0229 | – | 800.79 ± 0.29
313.15 K, x2 = 0.0502 | – | 796.68 ± 0.29
313.15 K, x2 = 0.0646 | 3.13e-06 ± 3.6e-08 | 794.53 ± 0.29
313.15 K, x2 = 0.0825 | – | 791.88 ± 0.29
313.15 K, x2 = 0.1067 | 2.81e-06 ± 3.2e-08 | 788.35 ± 0.29
313.15 K, x2 = 0.1205 | – | 786.35 ± 0.29
313.15 K, x2 = 0.1569 | – | 781.14 ± 0.29
313.15 K, x2 = 0.2007 | 2.24e-06 ± 2.6e-08 | 774.99 ± 0.29
313.15 K, x2 = 0.2441 | – | 769.04 ± 0.29
313.15 K, x2 = 0.2976 | 1.78e-06 ± 2.1e-08 | 761.89 ± 0.29
313.15 K, x2 = 0.3132 | – | 759.85 ± 0.29
313.15 K, x2 = 0.3441 | – | 755.84 ± 0.29
313.15 K, x2 = 0.3882 | 1.46e-06 ± 1.7e-08 | 750.23 ± 0.3
313.15 K, x2 = 0.3938 | – | 749.53 ± 0.3
313.15 K, x2 = 0.4703 | – | 740.16 ± 0.3
313.15 K, x2 = 0.4916 | 1.18e-06 ± 1.4e-08 | 737.63 ± 0.3
313.15 K, x2 = 0.4949 | – | 737.24 ± 0.3
313.15 K, x2 = 0.5873 | 1e-06 ± 1.2e-08 | 726.62 ± 0.3
313.15 K, x2 = 0.6023 | – | 724.95 ± 0.3
313.15 K, x2 = 0.6746 | – | 717.11 ± 0.3
313.15 K, x2 = 0.6964 | – | 714.81 ± 0.3
313.15 K, x2 = 0.7108 | 8.36e-07 ± 1.1e-08 | 713.3 ± 0.3
313.15 K, x2 = 0.757 | – | 708.56 ± 0.31
313.15 K, x2 = 0.7619 | – | 708.06 ± 0.31
313.15 K, x2 = 0.7893 | 7.56e-07 ± 1e-08 | 705.32 ± 0.31
313.15 K, x2 = 0.8428 | – | 700.08 ± 0.31
313.15 K, x2 = 0.8748 | – | 697.03 ± 0.31
313.15 K, x2 = 0.9109 | 6.67e-07 ± 9e-09 | 693.67 ± 0.31
313.15 K, x2 = 0.9297 | – | 691.97 ± 0.31
313.15 K, x2 = 0.9599 | 6.41e-07 ± 9e-09 | 689.33 ± 0.31
